Where a name gives a salt, the structure may show the parent alone.
What was measured:
[1] = Chick growth feeding trial (weight gain and feed conversion, treated vs untreated chicks); format: in vivo
[2] = Pig growth feeding trials I-III (weight gain and feed efficiency, treated vs untreated pigs); format: in vivo; conditions: Example 2, growing period about 18-90 kg
Text: The following examples are included to illustrate the improved feed utilization and/or tissue producing effect of the substituted phenylphosphinic acid derivatives of the present invention. It should be understood that examples are included to illustrate the practice of the present invention and are not intended to limit the scope of the invention. It should be further understood that the dosage levels recited in the following examples are only illustrative and are not meant to limit the scope of the invention. Unless otherwise noted, all percentages are by weight. Comparisons are between the numerical average for treated animals and the numerical average for untreated animals.
A swine diet for growing pigs prepared from the following types and amounts of ingredients:
Three trials were conducted wherein pigs were administered 2-methoxyphenylmethylphosphinic acid at dosage levels of 2.0, 10.0, 20.0 (TRIAL I); 0.5, 2.0, 8.0 (TRIAL II); and 0.5, 2.0, 8.0 (TRIAL III) milligrams per kilogram of finished feed throughout a growing period of about 18-90 kg.

[3] = Example 10, 1, 20, 60 or 100 mg per kg feed
[4] = trials I and II, 2.0 mg/kg finished feed
[5] = Examples 4 and 6, 1 mg and 10 mg per kg feed

CCP(=O)(O)c1ccccc1OC [2-methoxyphenylethylphosphinic acid]
average daily weight gain ([1]; Example 8, 10 mg per kg feed): higher average daily weight gain than untreated chicks

Cc1ccccc1P(C)(=O)O [2-methylphenylmethylphosphinic acid]
conversion of feed to weight gain ([1]; Example 3, 0.5 to 4.0 mg/kg feed, 45-48 days): converted feed to weight gain more efficiently than untreated chicks

CP(=O)(O)c1ccccc1Cl [2-chlorophenylmethylphosphinic acid]
daily weight gain ([1]; Example 5, 0.5 mg per kg feed): higher daily weight gain than untreated chicks

COc1ccccc1P(C)(=O)O [2-methoxyphenylmethylphosphinic acid]
average daily gain [1, 3]: higher average daily gain
conversion of feed to weight gain [1, 3]: converted feed to weight gain more efficiently than untreated chicks
weight gain ([2]; 10.0 and 20.0 mg/kg finished feed, vs untreated): gained weight faster than untreated pigs
daily weight gain [2, 4]: faster daily weight gain
feed efficiency [2, 4]: improved feed efficiency

CP(=O)(O)c1ccccc1[N+](=O)[O-] [2-nitrophenylmethylphosphinic acid]
average daily weight gain [1, 5]: higher average daily weight gain than untreated chicks

CP(=O)(O)c1ccccc1O [Ammonium 2-hydroxyphenylmethylphosphinate]
average daily weight gain [1, 5]: higher average daily weight gain than untreated chicks

CP(=O)(O)c1ccccc1C(=O)O [2-carboxylphenylmethylphosphinic acid, 2-carboxyphenylmethylphosphinic acid]
average daily weight gain ([1]; Example 7, 11 mg per kg feed): higher average daily weight gain than untreated chicks

CP(=O)(O)c1ccccc1N [2-aminophenylmethylphosphinic acid hydrochloride salt]
average daily weight gain ([1]; Example 9, 2.0 mg per kg feed): higher average daily weight gain than untreated chicks

Reference: patent publication US4618604A, “Composition and method for improving feed utilization or tissue production in animals” (Monsanto Company, priority 1984, dated 1986)
